Measurements as given in article PMC10303221, “Synthesis, In Silico Studies, and Antioxidant and Tyrosinase Inhibitory Potential of 2-(Substituted Phenyl) Thiazolidine-4-Carboxamide Derivatives” (Pharmaceuticals, 2023).
Values after ≈ are worked out from the molar mass of the structure shown.

Biological target: mushroom tyrosinase (Agaricus bisporus, UniProt C7FF04)
Test: Mushroom tyrosinase inhibitory assay (L-DOPA substrate, dopachrome absorbance at 492 nm)
Assay type: biochemical
Settings: compared with kojic acid
Experimental: An evaluation of the inhibitory effect on the tyrosinase enzyme was conducted on mushroom tyrosinase.
A tyrosinase inhibitory assay was conducted with the mushroom tyrosinase enzyme. An amount of 20 µL of mushroom tyrosinase (30 U/mL) was combined with 140 µL (20 mM, pH 6.8) of phosphate buffer. An amount of 20 µL of inhibitor solution was added to a 96-well microplate. Then pre-incubation at room temperature was conducted for 10 min. A solution of L-DOPA (20 μL—0.85 mM) was added. This was followed by the incubation of the plate for 20 min at 25 °C. Using a microplate reader (OPTIMax, Tunable), the absorbance of dopa-chrome was recorded at 492 nm.
The absorbance of dopa-chrome was measured at 492 nm using a microplate reader (OPTIMax, Tunable, San Jose, CA, USA). […] The IC50 values were used to express the extent of inhibition. The experiments were performed in triplicate for each concentration.

Sequence of mushroom tyrosinase (C7FF04 2-392): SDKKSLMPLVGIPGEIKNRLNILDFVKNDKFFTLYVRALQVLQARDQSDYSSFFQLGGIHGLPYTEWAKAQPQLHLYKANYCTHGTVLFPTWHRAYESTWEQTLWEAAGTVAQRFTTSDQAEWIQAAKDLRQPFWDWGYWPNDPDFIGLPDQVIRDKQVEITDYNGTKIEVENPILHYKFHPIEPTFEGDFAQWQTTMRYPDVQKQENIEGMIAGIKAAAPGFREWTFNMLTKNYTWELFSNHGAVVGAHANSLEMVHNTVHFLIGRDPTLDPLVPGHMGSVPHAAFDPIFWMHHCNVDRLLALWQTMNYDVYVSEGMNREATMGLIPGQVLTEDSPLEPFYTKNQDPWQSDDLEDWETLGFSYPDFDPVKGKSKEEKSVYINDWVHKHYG

Row | Tyrosinase inhibitory activity, in words | Structure (SMILES)
1 | moderate activity | COc1ccccc1C1NC(C(=O)Nc2ccc(C(=O)O)cc2)CS1 (stereo not drawn) [Compound 2a, 4-[2-(2-Methoxyphenyl)-1,3-thiazolidine-4-carbonyl]-aminobenzoic Acid]
2 | moderate activity | COc1ccc(NC(=O)C2CSC(c3ccc(O)cc3)N2)cc1 (stereo not drawn) [Compound 3e, 2-(4-Hydroxyphenyl)-N-(4-methoxyphenyl)-1,3-thiazolidine-4-carboxamide]
3 | moderate activity | COc1ccccc1C1NC(C(=O)Nc2ccc(C(=O)O)c(O)c2)CS1 (stereo not drawn) [Compound 2d, 2-Hydroxy-4-[2-(2-methoxyphenyl)-1,3-thiazolidine-4-carbonyl]-aminobenzoic Acid]
4 | moderate activity | COc1ccc(NC(=O)C2CSC(c3ccc(OC)cc3)N2)cc1 (stereo not drawn) [Compound 4e, N,2-Bis(4-methoxyphenyl)-1,3-thiazolidine-4-carboxamide]

Test system: not listed separately
Test: DPPH free radical scavenging assay (antioxidant activity)
Settings: mean ± SD, triplicate; 30 min at 37 °C, absorbance 517 nm
From the text: The 2,2-Diphenyl-1-picrylhydrazyl (DPPH) radical was used to evaluate the antioxidant potential of the synthesized compounds. Different concentrations of the samples were employed in the subject assay. […] The principle of this assay is related to the conversion of the purple-colored free radical into the pale-yellow-colored reduced form, owing to the action of a proton donating or antioxidant agent. […] Alternatively, compound 1d also acquired hydroxy groups on both mentioned positions. These groups are categorized as strong proton donors which tend to participate in the reduction in DPPH free radicals by donating protons.
The synthesized compounds were evaluated for their antioxidant activity by measuring their ability to scavenge DPPH free radicals. A previously described protocol was followed for this purpose. An amount of 20 µL of each of the four different dilutions of test samples (200, 66.66, 22.22, and 7.41 µg/mL) was added to 96-well plates containing 180 µL of DPPH solution. The absorbance at 517 nm was determined after incubating for 30 min at 37 °C. Ascorbic acid (1 mg/mL DMSO) was used as the positive control, and the assay was performed in triplicate. The IC50 values were also calculated using the % of inhibitions at different concentrations using Table Curve 2D Windows version 4.07.

Row | IC50 in the DPPH free radical scavenging assay | Structure (SMILES)
5 | 7.83 ± 0.5 µg/mL (≈ 44.5 µM) | O=C1O[C@H]([C@@H](O)CO)C(O)=C1O [ascorbic acid, reference compound]
6 | 18.27 ± 1.1 µg/mL (≈ 50.7 µM) | O=C(O)c1ccc(NC(=O)C2CSC(c3ccccc3O)N2)cc1O (stereo not drawn) [Compound 1d, 2-Hydroxy-4-[2-(2-hydroxyphenyl)-1,3-thiazolidine-4-carbonyl]-aminobenzoic Acid]
7 | 18.17 ± 1.0 µg/mL (≈ 48.5 µM) | COc1ccccc1C1NC(C(=O)Nc2ccc(C(=O)O)c(O)c2)CS1 (stereo not drawn) [Compound 2d, 2-Hydroxy-4-[2-(2-methoxyphenyl)-1,3-thiazolidine-4-carbonyl]-aminobenzoic Acid]

Test system: not given
Test: not given
Settings: not given

Row | melting point | Structure (SMILES)
8 | 174 to 176 °C | O=C(Nc1ccc(O)cc1)C1CSC(c2ccc(O)cc2)N1 (stereo not drawn) [Compound 3c, N,2-Bis(4-hydroxyphenyl)-1,3-thiazolidine-4-carboxamide]
9 | 130 to 131 °C | O=C(O)c1ccc(NC(=O)C2CSC(c3ccc(O)cc3)N2)cc1O (stereo not drawn) [Compound 3d, 2-Hydroxy-4-[2-(4-hydroxyphenyl)-1,3-thiazolidine-4-carbonyl]-aminobenzoic Acid]
10 | 116 to 117 °C | COc1ccccc1C1NC(C(=O)Nc2ccc(C(=O)O)cc2)CS1 (stereo not drawn) [Compound 2a, 4-[2-(2-Methoxyphenyl)-1,3-thiazolidine-4-carbonyl]-aminobenzoic Acid]
11 | 128 to 129 °C | O=C(C1CSC(c2ccccc2O)N1)N1CCOCC1 (stereo not drawn) [Compound 1b, [2-(2-Hydroxyphenyl)-1,3-thiazolidin-4-yl](morpholin-4-yl)-methanone]
12 | 115 to 117 °C | COc1ccc(NC(=O)C2CSC(c3ccc(O)cc3)N2)cc1 (stereo not drawn) [Compound 3e, 2-(4-Hydroxyphenyl)-N-(4-methoxyphenyl)-1,3-thiazolidine-4-carboxamide]
13 | 83 to 84 °C | COc1ccc(NC(=O)C2CSC(c3ccccc3O)N2)cc1 (stereo not drawn) [Compound 1e, 2-(2-Hydroxyphenyl)-N-(4-methoxyphenyl)-1,3-thiazolidine-4-carboxamide]
14 | 134 to 135 °C | O=C(O)c1ccc(NC(=O)C2CSC(c3ccccc3O)N2)cc1O (stereo not drawn) [Compound 1d, 2-Hydroxy-4-[2-(2-hydroxyphenyl)-1,3-thiazolidine-4-carbonyl]-aminobenzoic Acid]
15 | 135 to 136 °C | O=C(O)c1ccc(NC(=O)C2CSC(c3ccccc3O)N2)cc1 (stereo not drawn) [Compound 1a, 4-[2-(2-Hydroxyphenyl)-1,3-thiazolidine-4-carbonyl]-aminobenzoic Acid]
16 | 164 to 166 °C | O=C(O)c1ccc(NC(=O)C2CSC(c3ccc(O)cc3)N2)cc1 (stereo not drawn) [Compound 3a, 4-[2-(4-Hydroxyphenyl)-1,3-thiazolidine-4-carbonyl]-aminobenzoic Acid]
17 | 109 to 110 °C | COc1ccc(C2NC(C(=O)Nc3ccc(C(=O)O)c(O)c3)CS2)cc1 (stereo not drawn) [Compound 4d, 2-Hydroxy-4-[2-(4-methoxyphenyl)-1,3-thiazolidine-4-carbonyl]-aminobenzoic Acid]
18 | 112 to 113 °C | COc1ccccc1C1NC(C(=O)Nc2ccc(C(=O)O)c(O)c2)CS1 (stereo not drawn) [Compound 2d, 2-Hydroxy-4-[2-(2-methoxyphenyl)-1,3-thiazolidine-4-carbonyl]-aminobenzoic Acid]
19 | 109 to 111 °C | O=C(Nc1ccc(O)cc1)C1CSC(c2ccccc2O)N1 (stereo not drawn) [Compound 1c, 2-(2-Hydroxyphenyl)-N-(4-hydroxyphenyl)-1,3-thiazolidine-4-carboxamide]
20 | 94 to 95 °C | COc1ccc(C2NC(C(=O)Nc3ccc(C(=O)O)cc3)CS2)cc1 (stereo not drawn) [Compound 4a, 4-[2-(4-Methoxyphenyl)-1,3-thiazolidine-4-carbonyl]-aminobenzoic Acid]
21 | 129 to 131 °C | COc1ccc(NC(=O)C2CSC(c3ccc(OC)cc3)N2)cc1 (stereo not drawn) [Compound 4e, N,2-Bis(4-methoxyphenyl)-1,3-thiazolidine-4-carboxamide]
